Patent publication US20070015828A1 (Wyeth, priority 2005, published 2007)
“Also recorded” adds a separate entry of the source.

Columns and labels:
[1] = test system: Sigma 1; assay: Receptor binding assay: Sigma 1; settings: Test Compound @ 10 1 M
[2] = test system: Sigma 2; assay: Receptor binding assay: Sigma 2; settings: Test Compound @ 10 1 M
[3] = test system: Adrenergic, Alpha 1B; assay: Receptor binding assay: Adrenergic Alpha 1B; settings: Test Compound @ 10 1 M
[4] = biological target: T1, Adrenergic, Alpha 1A (Rattus norvegicus, UniProt P43140); assay: Receptor binding assay: Adrenergic Alpha 1A; settings: Test Compound @ 10 1 M
T1 construct: Novascreen (assay provider)
T1 sequence (P43140 whole entry): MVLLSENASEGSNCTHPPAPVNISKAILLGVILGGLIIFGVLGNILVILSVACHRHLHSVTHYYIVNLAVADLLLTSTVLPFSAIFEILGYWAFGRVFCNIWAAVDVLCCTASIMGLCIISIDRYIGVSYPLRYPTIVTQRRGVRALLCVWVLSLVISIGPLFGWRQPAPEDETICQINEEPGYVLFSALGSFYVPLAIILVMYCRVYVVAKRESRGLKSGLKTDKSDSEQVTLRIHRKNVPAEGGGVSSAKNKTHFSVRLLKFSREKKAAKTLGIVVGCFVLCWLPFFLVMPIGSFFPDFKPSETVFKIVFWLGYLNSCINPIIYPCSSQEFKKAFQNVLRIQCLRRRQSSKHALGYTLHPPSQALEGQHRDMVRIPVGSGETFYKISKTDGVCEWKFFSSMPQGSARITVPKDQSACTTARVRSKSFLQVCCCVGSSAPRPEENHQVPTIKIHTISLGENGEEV

[5] = biological target: T2, Opiate, Mu (hr) (Homo sapiens, UniProt P35372); assay: Receptor binding assay: Opiate Mu; settings: Test Compound @ 10 1 M
T2 construct: Novascreen (contract assay)
T2 sequence (P35372 whole entry): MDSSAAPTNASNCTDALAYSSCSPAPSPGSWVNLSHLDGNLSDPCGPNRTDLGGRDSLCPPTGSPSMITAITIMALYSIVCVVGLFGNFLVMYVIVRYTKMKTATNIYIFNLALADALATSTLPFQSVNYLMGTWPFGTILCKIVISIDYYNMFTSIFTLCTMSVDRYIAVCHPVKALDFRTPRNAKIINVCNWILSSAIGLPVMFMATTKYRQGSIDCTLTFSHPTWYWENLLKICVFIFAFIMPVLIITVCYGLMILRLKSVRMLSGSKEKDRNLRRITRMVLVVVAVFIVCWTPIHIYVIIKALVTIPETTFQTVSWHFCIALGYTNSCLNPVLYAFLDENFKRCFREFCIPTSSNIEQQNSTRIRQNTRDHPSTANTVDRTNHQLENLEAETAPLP

[6] = test system: Glutamate, Kainate Site; assay: Receptor binding assay: Glutamate Kainate site; settings: Test Compound @ 10 1 M
[7] = biological target: Adrenergic, Alpha 2C (hr) (Homo sapiens, UniProt P18825); assay: Receptor binding assay: Adrenergic Alpha 2C; settings: Test Compound @ 10 1 M
Adrenergic, Alpha 2C (hr), sequence (P18825 whole entry): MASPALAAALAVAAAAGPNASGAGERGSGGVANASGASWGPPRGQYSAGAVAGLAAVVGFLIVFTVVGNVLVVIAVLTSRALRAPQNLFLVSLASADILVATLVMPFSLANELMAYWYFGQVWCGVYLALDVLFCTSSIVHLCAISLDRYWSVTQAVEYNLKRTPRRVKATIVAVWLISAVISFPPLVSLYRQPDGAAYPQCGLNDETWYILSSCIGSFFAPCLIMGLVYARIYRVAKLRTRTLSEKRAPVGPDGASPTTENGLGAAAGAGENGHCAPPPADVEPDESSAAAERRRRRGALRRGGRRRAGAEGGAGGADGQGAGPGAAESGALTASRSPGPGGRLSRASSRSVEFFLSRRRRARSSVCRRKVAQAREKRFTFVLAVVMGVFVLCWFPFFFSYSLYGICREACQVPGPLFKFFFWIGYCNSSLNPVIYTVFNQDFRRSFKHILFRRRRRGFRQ

[8] = biological target: T3, Muscarinic, M4 (hr) (Homo sapiens, UniProt P08173); assay: Receptor binding assay: Muscarinic M4; settings: Test Compound @ 10 1 M
T3 construct: Novascreen (contract assay)
T3 sequence (P08173 whole entry): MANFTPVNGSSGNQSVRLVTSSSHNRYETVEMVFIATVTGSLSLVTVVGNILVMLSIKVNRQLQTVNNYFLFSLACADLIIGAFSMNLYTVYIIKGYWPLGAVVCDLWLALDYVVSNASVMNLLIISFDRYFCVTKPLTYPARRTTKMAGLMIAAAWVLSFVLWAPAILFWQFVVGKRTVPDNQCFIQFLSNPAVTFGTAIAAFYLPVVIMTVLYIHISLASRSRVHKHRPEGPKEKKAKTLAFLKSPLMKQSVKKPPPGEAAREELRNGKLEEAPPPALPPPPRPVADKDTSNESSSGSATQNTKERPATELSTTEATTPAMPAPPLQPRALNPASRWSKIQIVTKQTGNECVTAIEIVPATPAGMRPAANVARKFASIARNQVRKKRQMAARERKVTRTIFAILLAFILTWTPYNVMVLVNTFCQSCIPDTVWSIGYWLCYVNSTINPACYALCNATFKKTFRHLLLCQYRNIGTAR

[9] = test system: mouse PPQ induced writhing model; assay: Visceral pain model: PPQ-induced constrictions (writhing); type: in vivo
Experimental: 1-[2-dimethylamino-1-(4-phenol)ethyl]-cis-1,4-cyclohexandiol was dissolved in sterile saline and administered orally (p.o.) at dosages of 10 mg/kg, 30 mg/kg and 100 mg/kg. Gabapentin was purchased from Toronto Research Chemicals (Ontario, Canada) and suspended in 2% Tween 80 in 0.5% methylcellulose and administered intraperitoneally (i.p.).
For the visceral pain study male CD-1 mice (20-25 g, Charles River; Kingston/Stoneridge, NY) were housed in groups of 5/cage on bedding and for the neuropathic study male Sprague-Dawley rats (125-150 g, Harlan; Indianapolis, Ind.) were housed 3/cage on bedding. […]
The ability of 1-[2-dimethylamino-1-(4-phenol)ethyl]-cis-1,4-cyclohexandiol to attenuate acute visceral (abdominal) pain was assessed following an i.p. injection of 2 mg/kg PPQ (dissolved in 4% ethanol in distilled water, Sigma-Aldrich, St. Louis, Mo.) [Siegmund, E., et al., Proceedings of the Society for Experimental Biology and Medicine., 95 (1957) […]]. […] During testing, following PPQ administration, mice were individually placed in a Plexiglas cage and the total number of abdominal constrictions was recorded for one-minute periods, starting at 5 and 10 minutes after PPQ injection.
Statistical significance was determined using a one-way ANOVA using a customized SAS-excel application (SAS Institute, Cary, N.C.). […]

[10] = In vitro metabolism in hepatic microsomes, rat; type: in vitro ADME; settings: Sprague-Dawley rats, read-out: t1/2 in hepatic microsomes
Experimental: In vitro metabolism of 1-[2-dimethylamino-1-(4-phenol)ethyl]-cis-1,4-cyclohexandiol was conducted in the hepatic microsomes of Sprague-Dawley rats, male dogs, male monkeys and mixed male and female humans to characterize metabolic stability and identification of metabolites. 1-[2-dimethylamino-1-(4-phenol)ethyl]-cis-1,4-cyclohexandiol was stable (t1/2>60 minutes) in hepatic microsomes indicating Phase I and II metabolism was minimal in all species.

[11] = test system: spinal nerve ligation model of neuropathic pain, tactile allodynia; assay: Spinal nerve ligation model of neuropathic pain, tactile allodynia; type: in vivo; settings: rat, up to 100 mg/kg
Experimental: 1-[2-dimethylamino-1-(4-phenol)ethyl]-cis-1,4-cyclohexandiol was evaluated in two in-vivo animal models for pain, including a Visceral Pain model and a Neuropathic Pain model.
Surgical procedures were performed under 4% isoflurane/O2 anesthesia, delivered via nose cone and maintained at 2.5% for the duration of the surgery. After induction of anesthesia, the incision site was shaved and prepared in a sterile manner. Spinal nerve ligation (SNL) surgery was performed as previously described [Kim, S. H. and Chung, J. M., An experimental model for peripheral neuropathy produced by segmental spinal nerve ligation in the rat, Pain, 50 (1992) 355-63] with the exception that nerve injury was produced by tight ligation of the left L5 spinal nerve. Briefly, a midline incision was made and the L5 transverse process was removed and the nerve was tightly ligated with 6-0 silk suture material and the wound was closed in layers with 4-0 vicryl suture and the skin closed with wound clips.

[12] = test system: Imidazoline, I1; assay: Imidazoline binding assay: I1; settings: Test Compound @ 10 1 M
[13] = test system: rat hot plate assay; assay: Rat hot plate assay (acute pain); type: in vivo; settings: up to 30 mg/kg po
[14] = biological target: T4, Serotonin, 5HT5A (hr) (Homo sapiens, UniProt P47898); assay: Receptor binding assay: Serotonin 5HT5A; settings: Test Compound @ 10 1 M
T4 construct: Novascreen (contract assay)
T4 sequence (P47898 whole entry): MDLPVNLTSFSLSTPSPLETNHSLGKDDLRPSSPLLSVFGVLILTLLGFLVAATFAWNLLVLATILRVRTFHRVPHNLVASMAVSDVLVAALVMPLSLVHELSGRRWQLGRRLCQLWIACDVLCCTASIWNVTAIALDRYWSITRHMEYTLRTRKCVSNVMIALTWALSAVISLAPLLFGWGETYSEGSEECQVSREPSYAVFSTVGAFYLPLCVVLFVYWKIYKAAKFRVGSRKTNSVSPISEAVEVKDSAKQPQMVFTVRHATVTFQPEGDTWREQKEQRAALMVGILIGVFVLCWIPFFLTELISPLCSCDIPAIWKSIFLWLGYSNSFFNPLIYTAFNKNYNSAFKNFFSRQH

[15] = test system: Adrenergic, Alpha 2B; assay: Receptor binding assay: Adrenergic Alpha 2B; settings: Test Compound @ 10 1 M
[16] = test system: GABA A, Agonist site; assay: Receptor binding assay: GABA A agonist site; settings: Test Compound @ 10 1 M
[17] = biological target: T5, Serotonin, 5HT3 (hr) (Homo sapiens, UniProt P46098); assay: Receptor binding assay: Serotonin 5HT3; settings: Test Compound @ 10 1 M
T5 construct: Novascreen (contract assay)
T5 sequence (P46098 24-478): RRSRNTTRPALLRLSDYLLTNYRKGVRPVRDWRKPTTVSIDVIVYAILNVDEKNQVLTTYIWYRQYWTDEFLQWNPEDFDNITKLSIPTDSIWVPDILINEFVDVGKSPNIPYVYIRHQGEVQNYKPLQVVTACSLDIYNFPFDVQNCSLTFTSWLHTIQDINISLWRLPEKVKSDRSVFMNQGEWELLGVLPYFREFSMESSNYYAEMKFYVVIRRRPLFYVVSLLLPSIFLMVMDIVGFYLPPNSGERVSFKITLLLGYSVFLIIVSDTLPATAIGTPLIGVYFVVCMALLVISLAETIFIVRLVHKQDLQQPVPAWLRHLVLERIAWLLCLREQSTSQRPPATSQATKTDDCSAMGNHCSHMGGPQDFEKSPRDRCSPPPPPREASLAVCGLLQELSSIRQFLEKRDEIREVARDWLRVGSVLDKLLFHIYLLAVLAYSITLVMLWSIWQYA

[18] = test system: Serotonin, 5HT1, non-selective; assay: Receptor binding assay: Serotonin 5HT1 non-selective; settings: Test Compound @ 10 1 M
[19] = test system: Melatonin; assay: Receptor binding assay: Melatonin; settings: Test Compound @ 10 1 M

Structure (SMILES): CN(C)CC(c1ccc(O)cc1)C1(O)CCC(O)CC1 (stereo not drawn) [1-[2-dimethylamino-1-(4-phenol)ethyl]-cis-1,4-cyclohexandiol]
- Receptor Binding % Inhibition [1]: 2.96%
- Receptor Binding % Inhibition [2]: 1.00%
- Receptor Binding % Inhibition [3]: 11.27%
- inhibition at 10 µM [4]: -1.96%
- inhibition at 10 µM [5]: -0.35%
- Receptor Binding % Inhibition [6]: −0.51%
- inhibition at 10 µM [7]: 3.06%
- inhibition at 10 µM [8]: -3.52%
- reversal of visceral pain (reduction in writhing) ([9]; 100 mg/kg p.o., 60 minutes prior to PPQ, 100 mg/kg): statistically significant reversal; also recorded: significant reduction
- reduction in writhing ([9]; 10 and 30 mg/kg p.o.): not statistically significant
- half-life [10]: > 1 h
- reversal of tactile allodynia [11]: not found to reverse
- Receptor Binding % Inhibition [12]: 17.43%
- effect on acute pain [13]: not found to affect acute pain
- inhibition at 10 µM [14]: 19.9%
- Receptor Binding % Inhibition [15]: 8.60%
- Receptor Binding % Inhibition [16]: −16.06%
- inhibition at 10 µM [17]: 9.72%
- Receptor Binding % Inhibition [18]: 5.09%
- Receptor Binding % Inhibition [19]: 11.20%
